Laboratory results from patent publication US20230416261A1, “ETHANEDIAMINE-HETEROCYCLE DERIVATIVES AS INHIBITORS OF PROTEIN ARGININE METHYLTRANSFERASES” (Board of Regents, The University of Texas System, priority 2021, published 2023).

How the values were obtained:
PRMT1 [1] = target: T1, PRMT1 (Homo sapiens, UniProt Q99873); test: PRMT1 Enzymatic Assay (LANCE TR-FRET, methylation of histone H4 at Arg3); type: biochemical; parameters: purchased SignalChem P365-380G; settings: PRMT1 1.5 nM, SAM 1 μM, biotinylated histone H4 (1-21) 25 nM; read-out: PRMT-1 IC50
T1 sequence (Q99873 whole entry): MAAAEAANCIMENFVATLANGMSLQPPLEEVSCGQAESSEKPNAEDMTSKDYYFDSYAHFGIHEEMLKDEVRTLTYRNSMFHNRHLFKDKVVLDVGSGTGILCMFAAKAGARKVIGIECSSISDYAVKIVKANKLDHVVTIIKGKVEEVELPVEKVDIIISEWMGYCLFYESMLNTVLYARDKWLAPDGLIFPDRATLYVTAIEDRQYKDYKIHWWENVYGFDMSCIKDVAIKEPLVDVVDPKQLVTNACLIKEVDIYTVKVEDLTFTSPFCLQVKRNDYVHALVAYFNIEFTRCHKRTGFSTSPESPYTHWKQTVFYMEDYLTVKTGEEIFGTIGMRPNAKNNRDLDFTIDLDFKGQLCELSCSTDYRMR
Method: In order to measure PRMT1 enzymatic activity the LANCE TR-FRET assay from PerkinElmer was used to follow the methylation of histone H4 at Arg3 using S-adenosyl-L-methionine (SAM) as the methyl group donor.
This enzymatic assay was performed in a 384 well, white, low volume plate (PerkinElmer, Catalog 6008289) with assay buffer consisting of 50 mM Hepes (pH 8) (Teknova, Catalog #H1090), 1 mM TCEP (Sigma, Catalog #C4706), and 0.003% Tween-20 (Thermo, Catalog #85114). Stock solutions of the test compounds were prepared in 100% DMSO (Sigma, Catalog #D2650) and serially diluted 1:3 using 100% DMSO. Compounds were additionally diluted 1:40 in assay buffer, and 2 uL/well were transferred to the assay plate. 4 uL/well (final concentration 1.5 nM) of PRMT1 protein (SignalChem, Catalog #P365-380G) diluted in assay buffer was added to the assay plate followed by a 15 min preincubation at room temperature. 4 uL/well of SAM (Sigma, Catalog #A7007) and biotinylated histone H4 (1-21) (AnaSpec, Catalog #62555) (final concentrations 1 μM and 25 nM, respectively) diluted in assay buffer were then added to the assay plate followed by a 1 hour reaction time. Final concentrations of PRMT1, SAM, and histone H4 (1-21) refer to a […].
Detection of methylated histone H4 (H4R^3me) was achieved by combining LANCE Ultra Europium-anti-H4R^3me antibody (PerkinElmer, Catalog #TRF04-14), LANCE Ultra ULight-anti-streptavidin antibody (PerkinElmer, Catalog #TRF0102), and sinefungin (Sigma, Catalog #S8559) (final concentrations 2 nM, 50 nM, and 100 μM respectively) in 1× LANCE detection buffer (PerkinElmer, Catalog #CR97-100) and adding L/well of the detection solution to the assay plate. Detection reagents were allowed to react for 1 hour at room temperature. Final concentrations in the detection solution refer to a L volume. The europium fluorescence signal and the ULight TR-FRET signal were measured using a BioTek Synergy Neo plate reader: excitation at 330 nm, emission at 620 nm and 665 nm respectively, and the ratio of the two signals (665 nm/620 nm) was used for curve fitting. IC50 values were calculated using a four-parameter logistic curve fit using Genedata Screener software.

PRMT1 [2] = target: T1, PRMT1; test: PRMT1 RKO Cellular Target Engagement Assay (In-Cell Western, asymmetric di-methyl arginine); type: cell-based; settings: RKO cells, 48 hr compound incubation; read-out: RKO IC50 (PRMT-1 Target Engagement)
Method: RKO cells were routinely maintained in EMEM media (ATCC, Catalog #30-2003) supplemented with 10% fetal bovine serum (Sigma, Catalog #F2442) using a humidified incubator (37° C., 5% CO2, and ambient O2).
In preparation for the In-Cell Western assay, cells were harvested and resuspended in EMEM media supplemented with 10% fetal bovine serum. Cells were seeded onto a 384 well, black, clear bottom, Poly-D-Lysine coated tissue culture plate (Greiner, Catalog #781946) at a density of 1,000 cells/well in a volume of 40 μL. The culture plate was incubated for 24 hr at 37° C. with 5% CO2 and ambient O2. Stock solutions of the test compounds were prepared in 100% DMSO (Sigma, Catalog #D2650) and serially diluted 1:3 using 100% DMSO. Compounds were additionally diluted 1:40 in culture medium, and 10 μL/well was transferred to the tissue culture plate. Following the compound addition the microplate was incubated at 37° C. for 48 hr.
The media was removed, the plate was washed with 1× PBS (Fisher Bioreagents, Catalog #BP399-20), and cells were fixed for 10 min using 30 μL/well of 4% paraformaldehyde (Electron Microscopy Sciences, Catalog #15710). The paraformaldehyde was removed, the plate was again washed with 1× PBS, and cells were permeabilized for 15 min using 30 μL/well of 1× PBS containing 0.5% Triton-X 100 (Sigma, Catalog #1001748095). The permeabilization buffer was removed, the plate was washed with 1× PBST (Boston BioProducts, Catalog #IBB-171X), and 50 μL/well of blocking buffer (LI-COR, Catalog #927-40000) was added followed by a 1 hour incubation at room temperature. The blocking buffer was removed, and 20 μL/well of anti-asymmetric di-methyl arginine antibody (Cell Signaling, Catalog #13522S) diluted 1:1000 in LI-COR blocking buffer was added to the plate and incubated overnight, in the dark at 4° C.
The primary antibody was then removed, and the plate was washed three times with 1× PBST. 20 μL/well of CellTag (LI-COR, Catalog #926-41090) and IRDye 800CW goat anti-rabbit IgG antibody (LI-COR, Catalog #926-32211), each diluted 1:500 in LI-COR blocking buffer supplemented with 0.1% Tween-20 (Thermo Scientific, Catalog #85114), were added to the plate. The plate was then incubated in the dark, at room temperature for 1 hour followed by three washes with 1× PBST and one wash with H2O. The IRDye secondary antibody signal (800 channel) and the CellTag signal (700 channel) were measured using a Licor Odyssey Imager, and the 800 channel signal was then normalized to the 700 channel signal. IC50 values were calculated using a four-parameter logistic curve fit using Genedata Screener software.

DOHH2 cells = test: DOHH2 Long Term Phenotypic Assay (7 days, Cell Titer-Glo viability); type: cell-based; settings: Homo sapiens, DOHH-2, 168 h, Cell Titer-Glo 2.0
Method: DOHH2 cells were kindly provided by Michael Green (MDACC). The cells were routinely maintained in RPMI-1640 Medium (ATCC, Catalog #30-2001) supplemented with 10% fetal bovine serum (Sigma, Catalog #F2442), 100 units/mL penicillin and 100 μg/mL streptomycin (Gibco, Catalog #15140-122) in a humidified incubator (37° C., 5% CO2). Cells were seeded onto a white, CulturPlate-384 (Perkin Elmer, catalog #6007680) at a density of 250 cells per well in a volume of 50 μL. Stock solutions of the test compounds were prepared in 100% DMSO (Sigma, Catalog #D2650) and serially diluted 1:3 using 100% DMSO. Compounds were additionally diluted 1:33 in culture medium, and 10 μL/well was transferred to the tissue culture plate. Following the compound addition, the plate was incubated at 37° C. and 5% CO2 for 7 days. Cells were then mixed and a 30 μL volume was removed. Viability was assessed by a 30 μL addition of Cell Titer-Glo 2.0 (Promega, catalog #G9243). The plate was then shaken on an orbital shaker at 300 RPM for 10 minutes at room temperature, in the dark. Luminescence was measured using a PerkinElmer Envision™ plate reader. IC50 values were calculated using a four-parameter logistic curve fit using Genedata Screener software.

Structure (SMILES) | IC50 (PRMT1 [1]) | IC50 (PRMT1 [2]) | IC50 (DOHH2 cells)
COCC1(COC)CCC(c2c(CN(C)CCN)nn3c2CN(C(=O)C(C)(C)C(F)(F)F)CC3)CC1 [Example 70, 1-(2-(((2-aminoethyl)-(methyl)amino)methyl)-3-(4,4-bis(methoxymethyl)-cyclohexyl)-6,7-dihydro-pyrazolo[1,5-a]pyrazin-5(4H)-yl)-3,3,3-trifluoro-2,2-dimethylpropan-1-one] | 44 nM | 260 nM | 195 nM
CNCCN(C)Cc1nn2c(c1C1CCC(COC)(COC)CC1)CN(C(=O)C1CC(C(F)F)C1)CC2 (stereo not drawn) [Example 66, (3-(4,4-bis(methoxymethyl)-cyclohexyl)-2-((methyl(2-(methylamino)ethyl)amino)-methyl)-6,7-dihydropyrazolo-[1,5-a]pyrazin-5(4H)-yl)(3-(difluoromethyl)cyclobutyl)-methanone] | 52 nM | 958 nM | 150 nM
CNCCN(C)Cc1nn2c(c1C1CCC(COC)(COC)CC1)CN(C(=O)C1CCC1(F)F)CC2 (stereo not drawn) [Example 81, (3-(4,4-bis(methoxymethyl)-cyclohexyl)-2-((methyl(2-(methylamino)ethyl)amino)-methyl)-6,7-dihydropyrazolo-[1,5-a]pyrazin-5(4H)-yl)(2,2-difluorocyclobutyl)-methanone] | 133 nM | 367 nM | 296 nM
CNCCN(C)Cc1nn2c(c1C1CCC(COC)(COC)CC1)CN(C(=O)C1(C)CCCO1)CC2 (stereo not drawn) [Example 57, (3-(4,4-bis(methoxymethyl)-cyclohexyl)-2-((methyl(2-(methylamino)ethyl)amino)-methyl)-6,7-dihydropyrazolo-[1,5-a]pyrazin-5(4H)-yl)(2-methyltetrahydrofuran-2-yl)-methanone] | 80 nM | 267 nM | 170 nM
CCC(C)C(=O)N1CCn2nc(CN(C)CCNC)c(C3CCC(COC)(COC)CC3)c2C1 (stereo not drawn) [Example 65, 1-(3-(4,4-bis(methoxy-methyl)cyclohexyl)-2-((methyl(2-(methylamino)-ethyl)amino)methyl)-6,7-dihydropyrazolo[1,5-a]-pyrazin-5(4H)-yl)-2-methylbutan-1-one] | 70 nM | 534 nM | 134 nM
CNCCN(C)Cc1nn2c(c1C1CCC(COC)(COC)CC1)CN(C(=O)C(C)(C)O)CC2 [Example 71, 1-(3-(4,4-bis(methoxy-methyl)cyclohexyl)-2-((methyl(2-(methylamino)-ethyl)amino)methyl)-6,7-dihydropyrazolo[1,5-a]-pyrazin-5(4H)-yl)-2-hydroxy-2-methylpropan-1-one] | 266 nM | 3480 nM | 962 nM
CNCCN(C)Cc1nn2c(c1C1CCC(COC)(COC)CC1)CN(C(=O)C(C)(C)F)CC2 [Example 59, 1-(3-(4,4-bis(methoxy-methyl)cyclohexyl)-2-((methyl(2-(methylamino)-ethyl)amino)methyl)-6,7-dihydropyrazolo[1,5-a]-pyrazin-5(4H)-yl)-2-fluoro-2-methylpropan-1-one] | 48 nM | 177 nM | 113 nM
COCC1(COC)CCC(c2c(CN(C)CCN)nn3c2CN(C(=O)C2CC(C(F)(F)F)C2)CC3)CC1 (stereo not drawn) [Example 62, (2-(((2-aminoethyl)(methyl)-amino)methyl)-3-(4,4-bis-(methoxymethyl)cyclohexyl)-6,7-dihydropyrazolo[1,5-a]-pyrazin-5(4H)-yl)(3-(trifluoromethyl)cyclobutyl)-methanone] | 23 nM | 1380 nM | 76 nM
CCOC12CC(C(=O)N3CCn4nc(CN(C)CCNC)c(C5CCC(COC)(COC)CC5)c4C3)(C1)C2 [Example 26, (3-(4,4-bis(methoxymethyl)-cyclohexyl)-2-((methyl(2-(methylamino)ethyl)amino)-methyl)-6,7-dihydropyrazolo-[1,5-a]pyrazin-5(4H)-yl)(3-ethoxybicyclo[1.1.1]pentan-1-yl)methanone] | 439 nM | 2400 nM | 844 nM
CNCCN(C)Cc1nn2c(c1C1CCC(COC)(COC)CC1)CN(C(=O)C1CC(C)(O)C1)CC2 (stereo not drawn) [Example 75, (3-(4,4-bis(methoxymethyl)-cyclohexyl)-2-((methyl(2-(methylamino)ethyl)amino)-methyl)-6,7-dihydropyrazolo-[1,5-a]pyrazin-5(4H)-yl)(3-hydroxy-3-methylcyclobutyl)methanone] | 70 nM | 5650 nM | 1440 nM
CNCCN(C)Cc1nn2c(c1C1CCC(COC)(COC)CC1)CN(C(=O)C(C)(C)OC)CC2 [Example 69, 1-(3-(4,4-bis(methoxy-methyl)cyclohexyl)-2-((methyl(2-(methylamino)-ethyl)amino)methyl)-6,7-dihydropyrazolo[1,5-a]-pyrazin-5(4H)-yl)-2-methoxy-2-methylpropan-1-one] | 320 nM | 430 nM | 474 nM
CNCCN(C)Cc1nn2c(c1C1CCC(COC)(COC)CC1)CN(C(=O)C1CCC(F)(F)C1)CC2 (stereo not drawn) [Example 56, (3-(4,4-bis(methoxymethyl)-cyclohexyl)-2-((methyl(2-(methylamino)ethyl)amino)-methyl)-6,7-dihydropyrazolo-[1,5-a]pyrazin-5(4H)-yl)(3,3-difluorocyclopentyl)-methanone] | 54 nM | 392 nM | 83 nM
